From US20090018019A1, “INCREASING PATHOGEN DEFENCE IN PLANTS” (priority 2005, published 2009)

Experiments:
Test in all cases: DNA chip expression analysis of barley leaves after soil treatment
Format in all cases: in vivo
Conditions in all cases: 10 mg per plant to soil
[1] = test system: Contig2212_s_at PATHOGENESIS-RELATED PROTEIN PRB1-3
Description: (§1) Barley seeds (of the Baroness variety) were sown in pots containing soil about 2 cm deep (1250 g of sandy loam/per pot; the soil moisture content was adjusted to 70% of the maximum water-holding capacity) and cultivated in a climatized chamber under specified light, moisture and temperature conditions (15 h white light, 70% atmospheric humidity, 23-19° C. day/night).
(§2) 14 days after the emergence of the barley plants 10 mg of imidacloprid per plant, dissolved in 100 ml water, were applied by means of a pipette to the soil around the base of the shoot. The same volume of water without any active compound was applied to the control pots. After the soil treatment the plants were no longer watered. At various times after application (0.25; 1; 6; 8; 11; 13; 15; 16 and 17 days) the leaves were harvested, quick-frozen in liquid nitrogen and stored at −80° C. until further treatment.
(§3) The labelled RNA probes for the DNA chip hybridization were produced according to the protocols (Expression Analysis, Technical Manual) of the Affymetrix company (Affymetrix Inc., 3380 Central Expressway, Santa Clara, Calif., USA). Whole RNA was first of all isolated from in each case 500 mg of the harvested leaves. 10 μg portions of whole RNA were used for the first and second strand cDNA synthesis. The cDNA was amplified with T7 polymerase and simultaneously labelled with biotin-UTP. 20 μg portions of this biotinylated cDNA were used for the hybridization of the barley genome array (Barleyl Gene Chip, Item no: 511012) from Affymetrix. This DNA microarray contains DNA sequences of 22840 genes composed of a total of 400000 EST (Expressed Sequence Tag) sequences. Then the DNA microarrays were washed in the Affymetrix Fluidics Station, stained with streptavidin/phycoerythrin (Molecular Probes, P/N S-866) and scanned with the Affymetrix Gene Chip Scanner 3000. The fluorescence data obtained were analyzed with the Microarray Suite 5 software from Affymetrix and the Expressionist Pro software from the GeneData company. After a quality check, all of the DNA chip analyses were stored in a database. Since the Affymetrix Gene Chip System is based on measuring the absolute expression values of the genes contained in the chip, the expression values of the biological replicates of treated and non-treated plants were averaged after normalization (median calculation). With the aid of the statistical ANOVA method, those genes were identified whose expression was increased in the plants treated with imidacloprid but remained relatively constant in the untreated controls. The assembly of gene groups from specific metabolic pathways, signal transduction chains or functions was carried out by a keyword search through the gene annotations supplied by Affymetrix and by linking the genes to their corresponding Gene Ontology Annotations (Gene Ontology Consortium).

[2] = test system: Contig12046_at PATHOGENESIS RELATED PROTEIN-1
Description: as §1, §2, §3

[3] = test system: Contig639_at PATHOGENESIS-RELATED PROTEIN PRECURSOR
Description: as §1, §2, §3

[4] = test system: Contig17082_at TRYPSIN INHIBITOR
Description: as §1, §2, §3

[5] = test system: Contig2211_at PATHOGENESIS-RELATED PROTEIN PRECURSOR
Description: as §1, §2, §3

O=[N+]([O-])/N=C1\NCCN1Cc1ccc(Cl)nc1 [imidacloprid]
Induction factor = Expression (treated)/Expression (untreated) ([1]; 0.25 d): 0.9
Median of the raw expression data, treated ([1]; 0.25 days): 153.25
Induction factor = Expression (treated)/Expression (untreated) ([1]; 1 d): 0.9
Median of the raw expression data, treated ([1]; 1 day): 135.85
Induction factor = Expression (treated)/Expression (untreated) ([1]; 6 d): 9.6
Median of the raw expression data, treated ([1]; 6 days): 3508.08
Induction factor = Expression (treated)/Expression (untreated) ([1]; 8 d): 10.3
Median of the raw expression data, treated ([1]; 8 days): 3936.08
Induction factor = Expression (treated)/Expression (untreated) ([1]; 11 d): 9.0
Median of the raw expression data, treated ([1]; 11 days): 3866.40
Induction factor = Expression (treated)/Expression (untreated) ([1]; 13 d): 3.7
Median of the raw expression data, treated ([1]; 13 days): 470.29
Induction factor = Expression (treated)/Expression (untreated) ([1]; 15 d): 2.3
Median of the raw expression data, treated ([1]; 15 days): 378.35
Induction factor = Expression (treated)/Expression (untreated) ([1]; 16 d): 2.4
Median of the raw expression data, treated ([1]; 16 days): 756.91
Induction factor = Expression (treated)/Expression (untreated) ([1]; 17 d): 0.7
Median of the raw expression data, treated ([1]; 17 days): 376.36
Induction factor = Expression (treated)/Expression (untreated) ([2]; 0.25 d): 0.9
Median of the raw expression data, treated ([2]; 0.25 days): 76.89
Induction factor = Expression (treated)/Expression (untreated) ([2]; 1 d): 0.8
Median of the raw expression data, treated ([2]; 1 day): 46.22
Induction factor = Expression (treated)/Expression (untreated) ([2]; 6 d): 6.5
Median of the raw expression data, treated ([2]; 6 days): 786.00
Induction factor = Expression (treated)/Expression (untreated) ([2]; 8 d): 7.2
Median of the raw expression data, treated ([2]; 8 days): 1336.13
Induction factor = Expression (treated)/Expression (untreated) ([2]; 11 d): 7.8
Median of the raw expression data, treated ([2]; 11 days): 792.96
Induction factor = Expression (treated)/Expression (untreated) ([2]; 13 d): 2.7
Median of the raw expression data, treated ([2]; 13 days): 140.26
Induction factor = Expression (treated)/Expression (untreated) ([2]; 15 d): 2.5
Median of the raw expression data, treated ([2]; 15 days): 150.31
Induction factor = Expression (treated)/Expression (untreated) ([2]; 16 d): 2.9
Median of the raw expression data, treated ([2]; 16 days): 622.77
Induction factor = Expression (treated)/Expression (untreated) ([2]; 17 d): 0.9
Median of the raw expression data, treated ([2]; 17 days): 220.80
Induction factor = Expression (treated)/Expression (untreated) ([3]; 0.25 d): 0.7
Median of the raw expression data, treated ([3]; 0.25 days): 157.66
Induction factor = Expression (treated)/Expression (untreated) ([3]; 1 d): 0.3
Median of the raw expression data, treated ([3]; 1 day): 38.68
Induction factor = Expression (treated)/Expression (untreated) ([3]; 6 d): 8.6
Median of the raw expression data, treated ([3]; 6 days): 2482.57
Induction factor = Expression (treated)/Expression (untreated) ([3]; 8 d): 14.7
Median of the raw expression data, treated ([3]; 8 days): 3944.01
Induction factor = Expression (treated)/Expression (untreated) ([3]; 11 d): 8.9
Median of the raw expression data, treated ([3]; 11 days): 4273.57
Induction factor = Expression (treated)/Expression (untreated) ([3]; 13 d): 11.3
Median of the raw expression data, treated ([3]; 13 days): 1496.21
Induction factor = Expression (treated)/Expression (untreated) ([3]; 15 d): 2.9
Median of the raw expression data, treated ([3]; 15 days): 920.86
Induction factor = Expression (treated)/Expression (untreated) ([3]; 16 d): 4.4
Median of the raw expression data, treated ([3]; 16 days): 1300.36
Induction factor = Expression (treated)/Expression (untreated) ([3]; 17 d): 2.9
Median of the raw expression data, treated ([3]; 17 days): 1196.37
Induction factor = Expression (treated)/Expression (untreated) ([4]; 0.25 d): 0.9
Median of the raw expression data, treated ([4]; 0.25 days): 161.42
Induction factor = Expression (treated)/Expression (untreated) ([4]; 1 d): 1.1
Median of the raw expression data, treated ([4]; 1 day): 162.50
Induction factor = Expression (treated)/Expression (untreated) ([4]; 6 d): 3.8
Median of the raw expression data, treated ([4]; 6 days): 745.06
Induction factor = Expression (treated)/Expression (untreated) ([4]; 8 d): 3.7
Median of the raw expression data, treated ([4]; 8 days): 853.21
Induction factor = Expression (treated)/Expression (untreated) ([4]; 11 d): 3.6
Median of the raw expression data, treated ([4]; 11 days): 911.63
Induction factor = Expression (treated)/Expression (untreated) ([4]; 13 d): 2.2
Median of the raw expression data, treated ([4]; 13 days): 281.55
Induction factor = Expression (treated)/Expression (untreated) ([4]; 15 d): 1.5
Median of the raw expression data, treated ([4]; 15 days): 209.34
Induction factor = Expression (treated)/Expression (untreated) ([4]; 16 d): 1.6
Median of the raw expression data, treated ([4]; 16 days): 276.41
Induction factor = Expression (treated)/Expression (untreated) ([4]; 17 d): 1.1
Median of the raw expression data, treated ([4]; 17 days): 225.25
Induction factor = Expression (treated)/Expression (untreated) ([5]; 0.25 d): 1.0
Median of the raw expression data, treated ([5]; 0.25 days): 223.31
Induction factor = Expression (treated)/Expression (untreated) ([5]; 1 d): 1.0
Median of the raw expression data, treated ([5]; 1 day): 206.49
Induction factor = Expression (treated)/Expression (untreated) ([5]; 6 d): 3.1
Median of the raw expression data, treated ([5]; 6 days): 824.50
Induction factor = Expression (treated)/Expression (untreated) ([5]; 8 d): 3.7
Median of the raw expression data, treated ([5]; 8 days): 928.65
Induction factor = Expression (treated)/Expression (untreated) ([5]; 11 d): 3.0
Median of the raw expression data, treated ([5]; 11 days): 868.02
Induction factor = Expression (treated)/Expression (untreated) ([5]; 13 d): 1.8
Median of the raw expression data, treated ([5]; 13 days): 296.99
Induction factor = Expression (treated)/Expression (untreated) ([5]; 15 d): 1.1
Median of the raw expression data, treated ([5]; 15 days): 252.25
Induction factor = Expression (treated)/Expression (untreated) ([5]; 16 d): 1.5
Median of the raw expression data, treated ([5]; 16 days): 340.64
Induction factor = Expression (treated)/Expression (untreated) ([5]; 17 d): 0.8
Median of the raw expression data, treated ([5]; 17 days): 219.24
